From the supplement of paper PMC10331698
± gives the standard deviation of the averaged measurements.

Columns and labels:
Assay in all cases: level (log10 ratio to DMSO vehicle control); higher = higher biomarker level / cell amount than vehicle control
Conditions in all cases: in DMSO
[1] = compound: Cc1ccc(S(=O)(=O)OCC(F)(F)C(F)(F)C(F)(F)C(F)(F)C(F)(F)C(F)F)cc1 [1H,1H,7H-Perfluoroheptyl 4-methylbenzenesulfonate]
Method: (§1)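 BioMAP Diversity Plus panel of 12 human primary cell co-culture systems (3C, 4H, LPS, SAg, BT, BF4T, BE3C, CASM3C, HDF3CGF, KF3CT, MyoF, Mphg). Compounds were added 1 h before stimulation and left for 24 h (MyoF 48 h; BT 72 h for soluble read-outs or 6 d for IgG). Biomarkers were read by ELISA, cytotoxicity by SRB, PBMC viability and proliferation by Alamar Blue. Each well value was divided by the mean of 8 DMSO control wells on the same plate and log10 transformed; duplicate blinded samples were tested at 4 concentrations.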

[2] = compound: C=CC(=O)OCC(F)(F)C(F)(F)C(F)(F)C(F)(F)C(F)(F)C(F)(F)C(F)(F)C(F)F [1H,1H,9H-Perfluorononyl acrylate]
Method: as §1

[3] = compound: OCC(F)(F)C(F)(F)C(F)(F)C(F)(F)C(F)(F)C(F)(F)F [6:1 Fluorotelomer alcohol]
Method: as §1

[4] = compound: FC(F)(F)COC(OCC(F)(F)F)OCC(F)(F)F [tris(Trifluoroethoxy)methane]
Method: as §1

[5] = compound: O=C(O)C(F)(F)C(F)(F)C(=O)O [Tetrafluorosuccinic acid]
Method: as §1

[6] = compound: OCC(F)(F)C(F)(F)C(F)(F)C(F)(F)C(F)(F)C(F)(F)C(F)(F)C(F)(F)C(F)(F)C(F)(F)C(F)(F)F [11:1 Fluorotelomer alcohol]
Method: as §1

[7] = compound: O=C(CC(=O)C(F)(F)C(F)(F)C(F)(F)F)c1cccs1 [(Perfluorobutyryl)-2-thenoylmethane]
Method: as §1

Test System	level (log10) ([1]; 6700 nM)	level (log10) ([1]; 20000 nM)	level (log10) ([1]; 60000 nM)	level (log10) ([2]; 6700 nM)	level (log10) ([2]; 20000 nM)	level (log10) ([2]; 60000 nM)	level (log10) ([3]; 6700 nM)	level (log10) ([3]; 20000 nM)	level (log10) ([3]; 60000 nM)	level (log10) ([4]; 6700 nM)	level (log10) ([4]; 20000 nM)	level (log10) ([4]; 60000 nM)	level (log10) ([5]; 6700 nM)	level (log10) ([5]; 20000 nM)	level (log10) ([5]; 60000 nM)	level (log10) ([6]; 1100 nM)	level (log10) ([6]; 3300 nM)	level (log10) ([6]; 10000 nM)	level (log10) ([7]; 6700 nM)	level (log10) ([7]; 20000 nM)
BT:sIL-6	0.0155 ± 0.011	-0.0245 ± 0.069	-0.0975 ± 0.021	-0.073 ± 0.018	-0.269 ± 0.07	-0.693 ± 0.5	-0.001 ± 0.025	-0.034 ± 0.073	-0.296 ± 0.036	-0.006 ± 0.037	0.0005 ± 0.0092	-0.0105 ± 0.11	-0.0225 ± 0.0064	-0.018 ± 0.025	-0.033 ± 0.011	0.209 ± 0.0092	0.116 ± 0.034	0.083 ± 0.085	-0.009 ± 0.024	-0.265 ± 0.067
SAg:CD38	0.005 ± 0.0057	-0.0075 ± 0.012	-0.0075 ± 0.012	-0.0395 ± 0.035	-0.0245 ± 0.0035	-0.031 ± 0.011	-0.0215 ± 0.088	-0.0085 ± 0.12	-0.018 ± 0.17	-0.0135 ± 0.015	-0.011 ± 0.0057	-0.012 ± 0.02	-0.003 ± 0.027	0.001 ± 0.0028	0.006 ± 0.027	-0.0115 ± 0.084	-0.014 ± 0.073	0.0035 ± 0.042	-0.08 ± 0.055	-0.223 ± 0.035
BE3C:CXCL11/I-TAC	-0.0205 ± 0.0064	-0.0385 ± 0.00071	-0.0185 ± 0.019	0.0045 ± 0.00071	0.0085 ± 0.013	-0.005 ± 0.0085	0.027 ± 0.0057	0.011 ± 0.017	0.008 ± 0.0099	0.0065 ± 0.012	-0.002 ± 0.0042	0.0015 ± 0.0021	0.002 ± 0.0042	-0.0025 ± 0.0092	-0.002 ± 0.0014	-0.0085 ± 0.018	-0.025 ± 0.024	-0.005 ± 0.013	-0.01	-0.28 ± 0.011
SAg:SRB	0.002 ± 0.0057	-0.017 ± 0.011	-0.109 ± 0.02	-0.0035 ± 0.0035	-0.0055 ± 0.0021	-0.007 ± 0.021	0.0065 ± 0.015	0 ± 0.0042	0.008 ± 0.0085	-0.0155 ± 0.005	-0.0135 ± 0.0021	-0.013 ± 0.017	-0.016 ± 0.023	-0.015 ± 0.011	-0.0225 ± 0.015	-0.0415 ± 0.0092	-0.066 ± 0.0028	-0.065 ± 0.013	-0.012 ± 0.013	-0.0845 ± 0.0021
BF4T:PAI-I	-0.0075 ± 0.025	-0.0295 ± 0.011	-0.0315 ± 0.0035	0.007 ± 0.0057	0.003 ± 0.0085	0.0005 ± 0.012	-0.001 ± 0.0028	-0.012	0.002 ± 0.021	0.0025 ± 0.023	-0.012 ± 0.0042	0.007	-0.0075 ± 0.012	-0.0025 ± 0.018	0.0035 ± 0.00071	-0.003 ± 0.011	-0.003 ± 0.0042	0.002 ± 0.027	-0.0085 ± 0.0092	-0.125 ± 0.014
BF4T:tPA	-0.0305 ± 0.025	-0.0255 ± 0.022	-0.0555 ± 0.025	-0.0135 ± 0.028	-0.006 ± 0.011	-0.0395 ± 0.026	-0.0055 ± 0.016	-0.013 ± 0.021	0.0095 ± 0.029	0.0025 ± 0.022	-0.0105 ± 0.016	-0.004 ± 0.0014	-0.0145 ± 0.0078	-0.006 ± 0.034	-0.025 ± 0.013	0.0015 ± 0.0092	-0.003 ± 0.0071	0.026 ± 0.024	-0.122 ± 0.02	-0.068 ± 0.018
3C:CXCL8/IL-8	-0.0075 ± 0.0021	-0.0245 ± 0.0078	-0.061 ± 0.017	0.001 ± 0.03	0.02 ± 0.023	0.029 ± 0.033	-0.0095 ± 0.013	0.0145 ± 0.011	0.055 ± 0.057	-0.007 ± 0.016	-0.0085 ± 0.005	0.003 ± 0.013	-0.0265 ± 0.015	-0.0235 ± 0.012	-0.0005 ± 0.049	-0.022 ± 0.027	-0.0245 ± 0.046	0.019 ± 0.082	-0.112 ± 0.0035	-0.091 ± 0.014
LPS:CD141/Thrombomodulin	-0.0115 ± 0.016	-0.011 ± 0.0085	-0.007 ± 0.023	-0.028 ± 0.0042	-0.0695 ± 0.035	-0.108 ± 0.021	-0.0225 ± 0.03	-0.021 ± 0.051	0.002 ± 0.0057	-0.042 ± 0.042	-0.0385 ± 0.0078	-0.0505 ± 0.0035	0.019 ± 0.1	0.043 ± 0.057	0.04 ± 0.047	-0.0285 ± 0.015	-0.0185 ± 0.012	-0.0035 ± 0.013	-0.009 ± 0.042	-0.0665 ± 0.077
BE3C:IL-1alpha	0.01 ± 0.0085	-0.003 ± 0.018	0.071 ± 0.061	-0.01 ± 0.0085	-0.021 ± 0.018	-0.03 ± 0.021	-0.019 ± 0.0014	0.008 ± 0.0014	-0.0155 ± 0.04	0.0075 ± 0.021	-0.006 ± 0.021	0.021 ± 0.0057	0.019 ± 0.013	0.009 ± 0.02	0.0385 ± 0.012	-0.011 ± 0.018	-0.0325 ± 0.0021	-0.029 ± 0.02	-0.0165 ± 0.00071	-0.19 ± 0.005
LPS:sPGE2	-0.0185 ± 0.03	-0.023 ± 0.024	0.003 ± 0.058	-0.046 ± 0.0071	-0.123 ± 0.053	-0.15 ± 0.11	-0.0055 ± 0.028	0.004 ± 0.0099	0.005 ± 0.03	-0.0105 ± 0.022	-0.0085 ± 0.0035	0.0185 ± 0.013	0.0125 ± 0.032	-0.002 ± 0.047	0.054 ± 0.031	0.151 ± 0.075	0.212 ± 0.0064	0.211 ± 0.044	-0.066 ± 0.052	0.0635 ± 0.0064
BF4T:CD90	-0.0095 ± 0.0064	-0.015 ± 0.014	-0.0175 ± 0.0092	-0.0085 ± 0.016	0.005 ± 0.0071	-0.022 ± 0.0071	0.0015 ± 0.0064	-0.011 ± 0.0014	0.0035 ± 0.0092	-0.008 ± 0.0042	-0.004 ± 0.0028	-0.0035 ± 0.0021	-0.0115 ± 0.012	-0.015 ± 0.024	-0.017 ± 0.0042	0.0025 ± 0.011	-0.0025 ± 0.011	0.002 ± 0.0042	-0.014 ± 0.0085	-0.062 ± 0.027
SAg:CCL2/MCP-1	-0.024 ± 0.016	-0.027 ± 0.011	-0.021 ± 0.023	-0.0425 ± 0.015	-0.0565 ± 0.005	-0.033 ± 0.13	-0.002 ± 0.0057	-0.0085 ± 0.005	0.0175 ± 0.025	-0.0215 ± 0.0035	-0.0215 ± 0.0064	0.0105 ± 0.022	-0.006 ± 0.02	-0.0095 ± 0.0035	-0.0085 ± 0.0064	0.0095 ± 0.0078	-0.013 ± 0.044	0.0225 ± 0.039	-0.06 ± 0.0042	-0.146 ± 0.0014
BF4T:MMP-3	-0.006 ± 0.0014	-0.031 ± 0.0014	-0.018 ± 0.0085	0.013 ± 0.013	-0.003 ± 0.045	0.021 ± 0.0085	-0.012 ± 0.018	-0.0195 ± 0.0064	-0.002 ± 0.021	0.014 ± 0.044	0.004 ± 0.041	0.006 ± 0.042	0.0285 ± 0.012	-0.008 ± 0.028	0.012 ± 0.0057	0.008 ± 0.0014	0.009 ± 0.0057	0.0435 ± 0.035	-0.0475 ± 0.026	-0.0985 ± 0.032
